A value given as a limit tells only on which side of the number the result lay.

The target in one assay is Rho kinase 1 (ROCK1) (Homo sapiens, UniProt Q13464). The experiment in a line: In vitro Rho kinase inhibitory activity assay (ADP-Glo), ROCK1. It counts as biochemical. Particulars: 10 μM ATP, 25° C., Ki by Cheng-Prusoff. How it is done:
(§1) The effectiveness of compounds of the present invention to inhibit Rho kinase activity can be determined in a 10 μl assay containing 40 mM Tris pH7.5, 20 mM MgCl2 0.1 mg/ml BSA, 50 μM DTT and 2.5 μM peptide substrate (Myelin Basic Protein) using an ADP-Glo kit (Promega). Compounds were dissolved in DMSO such that the final concentration of DMSO was 1% in the assay. All reactions/incubations are performed at 25° C. Compound (2 ul) and either Rho kinase 1 or 2 (4 μl) were mixed and incubated for 30 mins. Reactions were initiated by addition of ATP (4 μl) such that the final concentration of ATP in the assay was 10 μM. After a 1 hour incubation 10 μl of ADP-Glo Reagent was added and after a further 45 minute incubation 20 ul of Kinase Detection Buffer was added and the mixture incubated for a further 30 minutes. The luminescent signal was measured on a luminometer. […] Compounds were tested in dose-response format and the inhibition of kinase activity was calculated at each concentration of compound. To determine the IC50 (concentration of compound required to inhibit 50% of the enzyme activity) data were fit to a plot of % inhibition vs Log10 compound concentration using a sigmoidal fit with a variable slope and fixing the maximum to 100% and the minimum to 0%. To determine the Ki values the Cheng-Prusoff equation was utilized (Ki=IC50/(1+[S]/Km)

The next assay concerns the target Rho kinase 2 (ROCK2) (Homo sapiens, UniProt O75116). Kind of assay: In vitro Rho kinase inhibitory activity assay (ADP-Glo), ROCK2. The format is biochemical. Particulars: 10 μM ATP, 25° C., Ki by Cheng-Prusoff. How it is done:
as §1
For orientation: ADP-Glo turns the ADP formed in a reaction into a luminescent signal.

Sequence of Rho kinase 1 (ROCK1) (Q13464 whole entry): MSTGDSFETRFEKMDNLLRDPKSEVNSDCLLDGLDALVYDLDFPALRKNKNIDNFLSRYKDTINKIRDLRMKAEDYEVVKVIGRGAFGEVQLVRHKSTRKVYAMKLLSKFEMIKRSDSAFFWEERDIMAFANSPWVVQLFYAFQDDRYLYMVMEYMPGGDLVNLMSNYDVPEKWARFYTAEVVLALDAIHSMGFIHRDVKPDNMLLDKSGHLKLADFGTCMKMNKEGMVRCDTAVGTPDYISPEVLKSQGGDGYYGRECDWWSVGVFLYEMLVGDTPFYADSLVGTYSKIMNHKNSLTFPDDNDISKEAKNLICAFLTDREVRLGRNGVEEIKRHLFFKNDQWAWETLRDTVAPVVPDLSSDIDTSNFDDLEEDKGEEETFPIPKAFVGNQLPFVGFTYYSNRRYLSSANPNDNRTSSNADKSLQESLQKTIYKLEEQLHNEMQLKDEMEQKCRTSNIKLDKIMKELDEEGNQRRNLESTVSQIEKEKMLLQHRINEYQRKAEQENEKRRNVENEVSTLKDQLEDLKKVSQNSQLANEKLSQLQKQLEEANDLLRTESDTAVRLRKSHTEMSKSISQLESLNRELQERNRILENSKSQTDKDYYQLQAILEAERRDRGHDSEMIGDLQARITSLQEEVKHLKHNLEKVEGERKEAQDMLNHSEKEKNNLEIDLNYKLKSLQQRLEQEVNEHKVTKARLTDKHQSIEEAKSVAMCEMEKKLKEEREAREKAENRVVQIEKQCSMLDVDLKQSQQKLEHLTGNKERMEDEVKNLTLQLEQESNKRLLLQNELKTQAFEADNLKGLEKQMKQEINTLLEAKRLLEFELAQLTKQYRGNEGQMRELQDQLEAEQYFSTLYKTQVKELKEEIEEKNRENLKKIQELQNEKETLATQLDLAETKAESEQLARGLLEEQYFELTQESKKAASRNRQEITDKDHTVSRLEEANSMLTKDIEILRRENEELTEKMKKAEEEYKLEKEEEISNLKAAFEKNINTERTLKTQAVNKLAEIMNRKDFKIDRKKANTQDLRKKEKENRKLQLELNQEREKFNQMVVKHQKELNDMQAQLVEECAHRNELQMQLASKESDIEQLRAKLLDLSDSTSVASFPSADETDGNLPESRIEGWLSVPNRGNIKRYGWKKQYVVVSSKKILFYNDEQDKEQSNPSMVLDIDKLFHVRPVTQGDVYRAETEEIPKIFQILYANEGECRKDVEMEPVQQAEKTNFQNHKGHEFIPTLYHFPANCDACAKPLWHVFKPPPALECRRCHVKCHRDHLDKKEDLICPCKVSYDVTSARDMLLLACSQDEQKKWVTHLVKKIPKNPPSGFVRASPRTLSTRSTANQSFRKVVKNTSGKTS
Sequence of Rho kinase 2 (ROCK2) (O75116 whole entry): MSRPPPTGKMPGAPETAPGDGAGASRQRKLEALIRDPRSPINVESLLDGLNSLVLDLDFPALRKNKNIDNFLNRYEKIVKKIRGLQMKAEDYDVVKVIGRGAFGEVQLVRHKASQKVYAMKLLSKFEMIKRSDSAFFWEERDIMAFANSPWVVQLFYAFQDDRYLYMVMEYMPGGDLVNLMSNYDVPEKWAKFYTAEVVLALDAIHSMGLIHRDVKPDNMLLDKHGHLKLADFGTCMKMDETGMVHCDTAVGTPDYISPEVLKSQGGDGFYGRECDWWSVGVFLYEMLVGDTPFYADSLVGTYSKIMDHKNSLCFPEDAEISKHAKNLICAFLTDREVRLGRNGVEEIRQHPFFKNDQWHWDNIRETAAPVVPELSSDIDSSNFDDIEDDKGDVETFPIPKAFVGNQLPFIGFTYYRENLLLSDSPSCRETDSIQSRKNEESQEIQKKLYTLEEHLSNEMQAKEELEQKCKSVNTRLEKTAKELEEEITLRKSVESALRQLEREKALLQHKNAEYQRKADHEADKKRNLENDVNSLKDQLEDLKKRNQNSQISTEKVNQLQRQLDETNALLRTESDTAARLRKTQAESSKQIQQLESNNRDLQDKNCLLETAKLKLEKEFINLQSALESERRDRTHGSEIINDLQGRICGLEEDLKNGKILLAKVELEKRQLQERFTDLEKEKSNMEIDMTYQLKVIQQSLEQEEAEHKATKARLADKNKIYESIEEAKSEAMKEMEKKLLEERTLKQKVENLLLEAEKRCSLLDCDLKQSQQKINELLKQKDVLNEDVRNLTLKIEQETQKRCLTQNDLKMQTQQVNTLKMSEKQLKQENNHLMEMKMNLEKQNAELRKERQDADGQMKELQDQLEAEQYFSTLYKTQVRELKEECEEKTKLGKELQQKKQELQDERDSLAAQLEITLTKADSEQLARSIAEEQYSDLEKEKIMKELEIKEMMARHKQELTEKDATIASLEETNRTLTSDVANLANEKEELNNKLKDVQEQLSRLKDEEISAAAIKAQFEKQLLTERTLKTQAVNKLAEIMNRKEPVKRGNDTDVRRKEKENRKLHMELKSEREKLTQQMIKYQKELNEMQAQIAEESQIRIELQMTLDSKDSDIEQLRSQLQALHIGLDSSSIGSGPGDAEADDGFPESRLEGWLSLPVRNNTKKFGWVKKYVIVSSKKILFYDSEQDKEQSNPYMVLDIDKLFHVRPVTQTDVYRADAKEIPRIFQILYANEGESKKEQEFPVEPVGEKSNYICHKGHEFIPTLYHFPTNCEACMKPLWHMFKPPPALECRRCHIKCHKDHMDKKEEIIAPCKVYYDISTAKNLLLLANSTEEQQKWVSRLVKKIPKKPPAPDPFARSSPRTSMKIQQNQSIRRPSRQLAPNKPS

In general, Ki refers to a measure of affinity in units of concentration, obtained from inhibition or displacement. Low readings indicate a stronger hold on the target, high ones a looser hold on the target. Take `Cc1c[nH]c2nccc(Oc3ccc([C@H]4CCN[C@@H]4C(=O)NCCOc4ccccc4)cc3)c12` (racemic) [Example 23, rac-(2S,3R)-3-(4-((3-methyl-1H-pyrrolo[2,3-b]pyridin-4-yl)oxy)phenyl)-N-(2-phenoxyethyl)pyrrolidine-2-carboxamide]: the Ki on Rho kinase 1 (ROCK1) and at Rho kinase 2 (ROCK2) was under 3 nM throughout.
Consider `Cc1c[nH]c2nccc(Oc3ccc(CC(CN)C(=O)N4C[C@@H]5C[C@H]4CN5C)cc3F)c12` (single isomer, unassigned) [Example 4B], for which the Ki at Rho kinase 1 (ROCK1) and on Rho kinase 2 (ROCK2) was under 3 nM in each case.
Take `Cc1c[nH]c2nccc(Oc3ccc(CC(CN)C(=O)N4CCN(Cc5ccccc5)CC4)cc3F)c12` (single isomer, unassigned) [Example 29A, 3-amino-1-(4-benzylpiperazin-1-yl)-2-(3-fluoro-4-((3-methyl-1H-pyrrolo[2,3-b]pyridin-4-yl)oxy)benzyl)propan-l-one]: the Ki on Rho kinase 1 (ROCK1) and on Rho kinase 2 (ROCK2) was 3 to 30 nM in each case.
Consider `Cc1c[nH]c2nccc(Oc3ccc(CC(CN)C(=O)N4CCN(Cc5ccccn5)CC4)cc3F)c12` (single isomer, unassigned) [Example 5B, 3-amino-2-(3-fluoro-4-((3-methyl-1H-pyrrolo[2,3-b]pyridin-4-yl)oxy)benzyl)-1-(4-(pyridin-2-ylmethyl)piperazin-1-yl)propan-1-one], for which the Ki on Rho kinase 1 (ROCK1) and on Rho kinase 2 (ROCK2) was under 3 nM in each case.
For the molecule `CN1CCC(NC(=O)C(CN)Cc2ccc(Oc3ccnc4[nH]cc(C#N)c34)cc2)CC1` (stereo not shown) [Example 46, 3-amino-2-(4-((3-cyano-1H-pyrrolo[2,3-b]pyridin-4-yl)oxy)benzyl)-N-(1-methylpiperidin-4-yl)propanamide], the Ki at Rho kinase 1 (ROCK1) and on Rho kinase 2 (ROCK2) was under 3 nM in each case.
In the case of `Cc1c[nH]c2nccc(Oc3ccc(CC(CN)C(=O)N4CCN(Cc5ccccc5)CC4)cc3F)c12` (single isomer, unassigned) [Example 29B, 3-amino-1-(4-benzylpiperazin-1-yl)-2-(3-fluoro-4-((3-methyl-1H-pyrrolo[2,3-b]pyridin-4-yl)oxy)benzyl)propan-1-one], the Ki at Rho kinase 1 (ROCK1) and at Rho kinase 2 (ROCK2) was under 3 nM in each case.
`COCCCNC(=O)C(CN)Cc1ccc(Oc2ccnc3[nH]ccc23)cc1` (stereo not shown) [Example 35, 2-(4-((1H-pyrrolo[2,3-b]pyridin-4-yl)oxy)benzyl)-3-amino-N-(3-methoxypropyl)propanamide]: the Ki on Rho kinase 1 (ROCK1) and at Rho kinase 2 (ROCK2) was 3 to 30 nM in each case.
As to `Cc1cc2c(Oc3ccc(CC(CN)C(=O)N4CCN(Cc5ccccc5)CC4)cc3)ccnc2[nH]1` (stereo not shown) [Example 6, 3-amino-1-(4-benzylpiperazin-1-yl)-2-(4-((2-methyl-1H-pyrrolo[2,3-b]pyridin-4-yl)oxy)benzyl)propan-1-one], the inhibitory constant (Ki) at Rho kinase 1 (ROCK1) and on Rho kinase 2 (ROCK2) was over 30 nM throughout.
On to `CN1C[C@@H]2C[C@H]1CN2C(=O)C(CN)Cc1ccc(Oc2ccnc3[nH]cc(C#N)c23)cc1` (stereo partly drawn) [Example 48, 4-(4-(2-(aminomethyl)-3-((1S,4S)-5-methyl-2,5-diazabicyclo[2.2.1]heptan-2-yl)-3-oxopropyl)phenoxy)-1H-pyrrolo[2,3-b]pyridine-3-carbonitrile], for which the Ki is 3 to 30 nM at Rho kinase 1 (ROCK1) and under 3 nM on Rho kinase 2 (ROCK2).
Turning to `NC(C(=O)Nc1ccccc1)c1ccc(Oc2ccnc3[nH]ccc23)cc1` (stereo not shown) [Example 9, 2-(4-((1H-pyrrolo[2,3-b]pyridin-4-yl)oxy)phenyl)-2-amino-N-phenylacetamide], the Ki on Rho kinase 1 (ROCK1) and on Rho kinase 2 (ROCK2) was over 30 nM in each case.
As for `N#Cc1c[nH]c2nccc(Oc3ccc(CC(CN)C(=O)N4CCN(Cc5ccccn5)CC4)cc3)c12` (stereo not shown) [Example 49, 4-(4-(2-(aminomethyl)-3-oxo-3-(4-(pyridin-2-ylmethyl)piperazin-1-yl)propyl)phenoxy)-1H-pyrrolo[2,3-b]pyridine-3-carbonitrile], the Ki at Rho kinase 1 (ROCK1) is 3 to 30 nM; on Rho kinase 2 (ROCK2) it was under 3 nM.
In the case of `Cc1c[nH]c2nccc(Oc3ccc([C@H]4CCN[C@@H]4C(=O)NCCc4ccccc4)cc3)c12` (racemic) [Example 22, rac-(2S,3R)-3-(4-((3-methyl-1H-pyrrolo[2,3-b]pyridin-4-yl)oxy)phenyl)-N-phenethylpyrrolidine-2-carboxamide], the Ki at Rho kinase 1 (ROCK1) and on Rho kinase 2 (ROCK2) was under 3 nM in each case.
Take `Cc1c[nH]c2nccc(Oc3ccc([C@@H]4CCN[C@H]4C(=O)N4CCNCC4)cc3)c12` (racemic) [Example 27, rac-((2S,3R)-3-(4-((3-methyl-1H-pyrrolo[2,3-b]pyridin-4-yl)oxy)phenyl)pyrrolidin-2-yl)(piperazin-1-yl)methanone]: the Ki at Rho kinase 1 (ROCK1) and on Rho kinase 2 (ROCK2) was 3 to 30 nM each time.
Turning to `Cc1c[nH]c2nccc(Oc3ccc(CC(CN)C(=O)N4CCN(C)CC4)cc3)c12` (stereo not shown) [Example 1, 3-amino-2-(4-((3-methyl-1H-pyrrolo[2,3-b]pyridin-4-yl)oxy)benzyl)-1-(4-methylpiperazin-1-yl)propan-1-one], the Ki at Rho kinase 1 (ROCK1) and on Rho kinase 2 (ROCK2) was under 3 nM in each case.
In the case of `Cc1c[nH]c2nccc(Oc3ccc([C@@H]4CN(C)C[C@H]4C(=O)NCc4ccccc4)cc3)c12` (racemic) [Example 50, rac-(3R,4S)-N-benzyl-1-methyl-4-(4-((3-methyl-1H-pyrrolo[2,3-b]pyridin-4-yl)oxy)phenyl)pyrrolidine-3-carboxamide], the Ki is 3 to 30 nM at Rho kinase 1 (ROCK1) and under 3 nM on Rho kinase 2 (ROCK2).
The like results for `Cc1c[nH]c2nccc(Oc3ccc(C(CN)CC(=O)N4CCN(Cc5ccccc5)CC4)cc3)c12` (stereo not shown) [Example 15, 4-amino-1-(4-benzylpiperazin-1-yl)-3-(4-((3-methyl-1H-pyrrolo[2,3-b]pyridin-4-yl)oxy)phenyl)butan-1-one] were, in that order, under 3 nM and under 3 nM.
Regarding `Cc1c[nH]c2nccc(Oc3ccc([C@H]4CNC[C@@H]4C(=O)NCc4ccccc4)cc3)c12` (racemic) [Example 17, rac-(3R,4S)-N-benzyl-4-(4-((3-methyl-1H-pyrrolo[2,3-b]pyridin-4-yl)oxy)phenyl)pyrrolidine-3-carboxamide], the Ki on Rho kinase 1 (ROCK1) and on Rho kinase 2 (ROCK2) was under 3 nM throughout.
Consider `Cc1c[nH]c2nccc(Oc3ccc(C(CN)CC(=O)N4CCN(C5CC5)CC4)cc3)c12` (stereo not shown) [Example 16, 4-amino-1-(4-cyclopropylpiperazin-1-yl)-3-(4-((3-methyl-1H-pyrrolo[2,3-b]pyridin-4-yl)oxy)phenyl)butan-1-one], for which the Ki on Rho kinase 1 (ROCK1) and on Rho kinase 2 (ROCK2) was 3 to 30 nM in each case.
`Cc1c[nH]c2nccc(Oc3ccc([C@H]4CCN[C@@H]4C(=O)NC4CCN(C)CC4)cc3)c12` (racemic) [Example 25, rac-(2S,3R)-3-(4-((3-methyl-1H-pyrrolo[2,3-b]pyridin-4-yl)oxy)phenyl)-N-(1-methylpiperidin-4-yl)pyrrolidine-2-carboxamide]: the Ki at Rho kinase 1 (ROCK1) and at Rho kinase 2 (ROCK2) was 3 to 30 nM throughout.
On to `CN1CCN(C(=O)C(N)c2ccc(Oc3ccnc4[nH]ccc34)cc2)CC1` (stereo not shown) [Example 11, 2-(4-((1H-pyrrolo[2,3-b]pyridin-4-yl)oxy)phenyl)-2-amino-1-(4-methylpiperazin-1-yl)ethanone], for which the Ki on Rho kinase 1 (ROCK1) and on Rho kinase 2 (ROCK2) was over 30 nM each time.
Take `Cc1c[nH]c2nccc(Oc3ccc([C@H]4CCN[C@@H]4C(=O)NCCc4ccncc4)cc3)c12` (racemic) [Example 20, rac-(2S,3R)-3-(4-((3-methyl-1H-pyrrolo[2,3-b]pyridin-4-yl)oxy)phenyl)-N-(2-(pyridin-4-yl)ethyl)pyrrolidine-2-carboxamide]: the Ki on Rho kinase 1 (ROCK1) and at Rho kinase 2 (ROCK2) was under 3 nM each time.
On to `Cc1c[nH]c2nccc(Oc3ccc(C(N)CC(=O)N4CCN(Cc5ccccc5)CC4)cc3)c12` (single isomer, unassigned) [Example 7A, 3-amino-1-(4-benzylpiperazin-1-yl)-3-(4-((3-methyl-1H-pyrrolo[2,3-b]pyridin-4-yl)oxy)phenyl)propan-1-one], for which the Ki at Rho kinase 1 (ROCK1) and on Rho kinase 2 (ROCK2) was under 3 nM throughout.
On to `Cc1c[nH]c2nccc(Oc3ccc(CC(CN)C(=O)NC4CCCCC4)cc3F)c12` (stereo not shown) [Example 28, 3-amino-N-cyclohexyl-2-(3-fluoro-4-((3-methyl-1H-pyrrolo[2,3-b]pyridin-4-yl)oxy)benzyl)propanamide], for which the Ki at Rho kinase 1 (ROCK1) and on Rho kinase 2 (ROCK2) was under 3 nM each time.
Consider `Cc1c[nH]c2nccc(Oc3ccc(CC4CNCN(CCc5ccncc5)C4=O)cc3F)c12` (stereo not shown) [Example 43, 5-(3-fluoro-4-((3-methyl-1H-pyrrolo[2,3-b]pyridin-4-yl)oxy)benzyl)-3-(2-(pyridin-4-yl)ethyl)tetrahydropyrimidin-4(1H)-one], for which the Ki at Rho kinase 1 (ROCK1) and at Rho kinase 2 (ROCK2) was over 30 nM each time.
Consider `CN1CCC(N2CNCC(Cc3ccc(Oc4ccnc5[nH]cc(C#N)c45)cc3)C2=O)CC1` (stereo not shown) [Example 47, 4-(4-((1-(1-methylpiperidin-4-yl)-6-oxohexahydropyrimidin-5-yl)methyl)phenoxy)-1H-pyrrolo[2,3-b]pyridine-3-carbonitrile], for which the Ki on Rho kinase 1 (ROCK1) and at Rho kinase 2 (ROCK2) was 3 to 30 nM in each case.
For `Cc1c[nH]c2nccc(Oc3ccc([C@H]4CCN[C@@H]4C(=O)NCc4ccccc4)cc3)c12` (racemic) [Example 19, rac-(2S,3R)-N-benzyl-3-(4-((3-methyl-1H-pyrrolo[2,3-b]pyridin-4-yl)oxy)phenyl)pyrrolidine-2-carboxamide], the Ki on Rho kinase 1 (ROCK1) and at Rho kinase 2 (ROCK2) was under 3 nM throughout.
